Results on nine molecules are retold here after PubChem BioAssay AID1259407 (Chemical Carcinogenesis Research Information System (CCRIS), 2018).

For this data set, the system named is CCRIS mutagenicity, Ames/micronucleus/aberration tests. The data set can be described thus: CCRIS mutagenicity studies.
Where [1] appears, read: Test System: AMES SALMONELLA TYPHIMURIUM, Strain/Indicator: TA98, Metabolic Activation: NONE, Method: STANDARD PLATE.
Setting [2] is: Test System: AMES SALMONELLA TYPHIMURIUM, Strain/Indicator: TA100, Metabolic Activation: NONE, Method: STANDARD PLATE.
The mark [3] stands for this setting: Test System: AMES SALMONELLA TYPHIMURIUM, Strain/Indicator: TA98, Metabolic Activation: RAT, LIVER, S-9, AROCLOR 1254, Method: STANDARD PLATE.
Setting [4] is: Test System: AMES SALMONELLA TYPHIMURIUM, Strain/Indicator: TA98, Metabolic Activation: NONE, Method: PREINCUBATION

SMILES strings stand for the structures. Activity calls are given as the source filed them. How the calls were made is not given here.

With `Nc1cc2c(cc1[N+](=O)[O-])[nH]c1ccccc12`, the mutagenic call under setting [1] is “active; positive”; the mutagenic call (Test System: AMES SALMONELLA TYPHIMURIUM, Strain/Indicator: TA98, Metabolic Activation: RAT, LIVER, S-9, PHENOBARBITAL, Method: STANDARD PLATE) was “active; positive”; the mutagenic call under setting [2] is “active; positive”; the mutagenic call (Test System: AMES SALMONELLA TYPHIMURIUM, Strain/Indicator: TA100, Metabolic Activation: RAT, LIVER, S-9, PHENOBARBITAL, Method: STANDARD PLATE) is “active; positive”; the mutagenic call (Test System: AMES SALMONELLA TYPHIMURIUM, Strain/Indicator: TA1537, Metabolic Activation: NONE, Method: STANDARD PLATE) is “active; positive”; the mutagenic call (Test System: AMES SALMONELLA TYPHIMURIUM, Strain/Indicator: TA1537, Metabolic Activation: RAT, LIVER, S-9, PHENOBARBITAL, Method: STANDARD PLATE) is “active; positive”. For the same molecule, the mutagenic call by setting is: (Test System: AMES SALMONELLA TYPHIMURIUM, Strain/Indicator: TA1538, Metabolic Activation: NONE, Method: STANDARD PLATE) “active; positive”; (Test System: AMES SALMONELLA TYPHIMURIUM, Strain/Indicator: TA1538, Metabolic Activation: RAT, LIVER, S-9, PHENOBARBITAL, Method: STANDARD PLATE) “active; positive”; (Test System: AMES SALMONELLA TYPHIMURIUM, Strain/Indicator: TA1977, Metabolic Activation: NONE, Method: STANDARD PLATE) “active; positive”; (Test System: AMES SALMONELLA TYPHIMURIUM, Strain/Indicator: TA1977, Metabolic Activation: RAT, LIVER, S-9, PHENOBARBITAL, Method: STANDARD PLATE) “active; positive”.
For the molecule `Cc1ccc([N+](=O)[O-])c(S(=O)(=O)O)c1[N+](=O)[O-]`, the mutagenic call is “inactive; negative” (End Point: In vitro chromosomal aberrations, Test System: V79 Chinese hamster fibroblasts, Metabolic Activation: None); “inactive; negative” (Test System: Ames Salmonella typhimurium, Strain/Indicator: TA98, Metabolic Activation: None, Method: Standard plate); “inactive; negative” (Test System: Ames Salmonella typhimurium, Strain/Indicator: TA98, Metabolic Activation: Rat, Liver, S-9, Method: Standard plate); “inactive; negative” (Test System: Ames Salmonella typhimurium, Strain/Indicator: TA100, Metabolic Activation: None, Method: Standard plate); “inactive; negative” (Test System: Ames Salmonella typhimurium, Strain/Indicator: TA100, Metabolic Activation: Rat, Liver, S-9, Method: Standard plate).
For `BrCc1c2ccccc2cc2ccc3ccccc3c12`, the mutagenic call under setting [1] was “active; positive” and the mutagenic call under setting [2] was “active; positive”.
For the molecule `C/C=C(\Cl)C1=CC(=O)[C@]23C[C@H]2C(C)(C)O[C@]3(O)C1=O`, the mutagenic call reads like this: (Test System: AMES SALMONELLA TYPHIMURIUM, Strain/Indicator: TA97, Metabolic Activation: NONE) “inactive; negative”; (Test System: AMES SALMONELLA TYPHIMURIUM, Strain/Indicator: TA98, Metabolic Activation: NONE) “inactive; negative”; (Test System: AMES SALMONELLA TYPHIMURIUM, Strain/Indicator: TA100, Metabolic Activation: NONE) “inactive; negative”; (Test System: AMES SALMONELLA TYPHIMURIUM, Strain/Indicator: TA102, Metabolic Activation: NONE) “active; positive”.
As to `CC(=O)Nc1ccc2c(c1OC(=O)c1ccccc1)Cc1ccccc1-2`, the mutagenic call under setting [3] was “inactive; negative”.
Consider `NC(=O)C1(C(N)=O)OC1C(=O)c1ccccc1` (centres undefined), for which the mutagenic call reads like this: (Test System: AMES SALMONELLA TYPHIMURIUM, Strain/Indicator: TA98, Metabolic Activation: NONE, Method: DISK ASSAY) “inactive; negative”; under setting [1], “inactive; negative”; (Test System: AMES SALMONELLA TYPHIMURIUM, Strain/Indicator: TA98, Metabolic Activation: RAT, LIVER, S-9, AROCLOR 1254, Method: DISK ASSAY) “inactive; negative”; under setting [3], “active; positive”; under setting [2], “inactive; negative”; (Test System: AMES SALMONELLA TYPHIMURIUM, Strain/Indicator: TA100, Metabolic Activation: RAT, LIVER, S-9, AROCLOR 1254, Method: STANDARD PLATE) “inactive; negative”.
In the case of `O=CC(Cl)(Cl)Cl`, the mutagenic call is, setting by setting: (Test System: AMES SALMONELLA TYPHIMURIUM, Strain/Indicator: TA97, Metabolic Activation: HAMSTER, LIVER, S-9, AROCLOR 1254 (10%), Method: PREINCUBATION) “inactive; negative”; (Test System: AMES SALMONELLA TYPHIMURIUM, Strain/Indicator: TA97, Metabolic Activation: NONE, Method: PREINCUBATION) “inactive; negative”; (Test System: AMES SALMONELLA TYPHIMURIUM, Strain/Indicator: TA97, Metabolic Activation: RAT, LIVER, S-9, AROCLOR 1254 (10%), Method: PREINCUBATION) “inactive; negative”; (Test System: AMES SALMONELLA TYPHIMURIUM, Strain/Indicator: TA98, Metabolic Activation: HAMSTER, LIVER, S-9, AROCLOR 1254 (10%), Method: PREINCUBATION) “inactive; negative”; under setting [4], “inactive; negative”; (Test System: AMES SALMONELLA TYPHIMURIUM, Strain/Indicator: TA98, Metabolic Activation: RAT, LIVER, S-9, AROCLOR 1254 (10%), Method: PREINCUBATION) “inactive; negative”. Moreover, the mutagenic call reads like this: (Test System: AMES SALMONELLA TYPHIMURIUM, Strain/Indicator: TA100, Metabolic Activation: HAMSTER, LIVER, S-9, AROCLOR 1254 (5, 10 OR 30%), Method: PREINCUBATION) “inactive; negative”; (Test System: AMES SALMONELLA TYPHIMURIUM, Strain/Indicator: TA100, Metabolic Activation: RAT, LIVER, S-9, AROCLOR 1254 (5, 10 OR 30%), Method: PREINCUBATION) “inactive; negative”; (Test System: AMES SALMONELLA TYPHIMURIUM, Strain/Indicator: TA100, Metabolic Activation: RAT, LIVER, S-9, Method: PREINCUBATION) “active; positive”; (Test System: AMES SALMONELLA TYPHIMURIUM, Strain/Indicator: TA1535, Metabolic Activation: HAMSTER, LIVER, S-9, AROCLOR 1254 (10%), Method: PREINCUBATION) “inactive; negative”; (Test System: AMES SALMONELLA TYPHIMURIUM, Strain/Indicator: TA1535, Metabolic Activation: NONE, Method: PREINCUBATION) “inactive; negative”; (Test System: AMES SALMONELLA TYPHIMURIUM, Strain/Indicator: TA1535, Metabolic Activation: RAT, LIVER, S-9, AROCLOR 1254 (10%), Method: PREINCUBATION) “inactive; negative”.
`O=S(=O)(O)Oc1cccc2c1cc1ccc3cccc4ccc2c1c34`: the mutagenic call is, setting by setting: under setting [4], “inactive; negative”; (Test System: AMES SALMONELLA TYPHIMURIUM, Strain/Indicator: TA98, Metabolic Activation: RAT, LUNG, S-9, Method: PREINCUBATION) “inactive; negative”.
As for `CN(CCCC(O)c1cccnc1)N=O` (centres undefined), the mutagenic call was “active; positive” (Test System: AMES SALMONELLA TYPHIMURIUM, Strain/Indicator: TA1535, Metabolic Activation: HAMSTER LIVER S-9, AROCLOR 1254 (5% OR 10%), Method: MICROSUPENSION) and “active; positive” (Test System: AMES SALMONELLA TYPHIMURIUM, Strain/Indicator: TA1535, Metabolic Activation: RAT LIVER S-9, AROCLOR 1254 (5% OR 10%), Method: MICROSUSPENSION).
